In patent publication US7319087B2, “Antimicrobial polypeptide from Aspergillus niger” (Novozymes A/S, priority 2001, dated 2008):
No end group written: not given here.

Experiments:
A. oryzae BECh2 = assay: Growth of transformants expressing the polypeptide in tubes with YPM (2% maltose); assay type: cell-based, Aspergillus oryzae; settings: A. oryzae BECh2 transformed with expression plasmid, 6 days, 10 ml YPM (2% maltose)
Source text: (§1) The A. niger anti-microbial polypeptide was inserted in the Aspergillus expression vector pMT2188 to give pMT2446 (i.e., pMT2188 with an insert comprising the A. niger anti-microbial gene): pMT2446 was transformed into A. oryzae BECh2 (disclosed, e.g., on page 26 of WO 00/39322) and into A. niger MBin118. Thirty transformants of each strain were re-isolated twice under selective and non-inducing conditions on Cove minimal plates with sucrose and acetamide. To test expression of the anti-microbial polypeptide, transformants were grown for 6 days in tubes with 10 ml YPM (2% maltose). Supernatants were run on NuPage 10% Bis-Tris SDS gels with MES running buffer to allow separation in the low mw range.

A. niger MBin118 = assay: as above; assay type: cell-based, Aspergillus niger; settings: A. niger MBin118 transformed with expression plasmid, 6 days, 10 ml YPM (2% maltose)
Source text: as §1

[1] = A. giganteus peptide, 51 amino acids; Campos-Olivas et al. (1995); cited from earlier work

Row | Substance | growth on YPM of host transformants (A. oryzae BECh2) | growth on YPM of host transformants (A. niger MBin118) | pl [1]
1 | A. giganteus anti-fungal polypeptide (AFP): A. giganteus anti-fungal polypeptide (AFP) disclosed in WO 94/01459 (ATYNGKCYKKDNICKYKAQSGKTAICKCYVKKCPRDGAKCEFDSYKGKCYC; UniProt P17737 44-94, looked up) | Growth was inhibited | Growth was inhibited | –
2 | A. giganteus peptide: anti-fungal peptide from Aspergillus giganteus (Nakaya et al. 1990), 51 amino acids, four S-S bridges (ATYNGKCYKKDNICKYKAQSGKTAICKCYVKKCPRDGAKCEFDSYKGKCYC; disulfide (positions not given here); not fully specified (bridges); also: four S-S bridges, pairing not given here; UniProt P17737 44-94, looked up) | – | – | 9.3
3 | A. niger anti-microbial polypeptide: 58 amino acid mature polypeptide with anti-microbial activity from Aspergillus niger, SEQ ID NO: 2 (positions 1 to 58), expressed from pMT2446 (MQLTSIAIILFAAMGAIANPIAAEADNLVAREAELSKYGGECSVEHNTCTYLKGGKDH; Aspergillus niger) | seemed inhibited | seemed to grow normally | –
